From publication PMC2362229 (British Journal of Cancer, 1999)

Columns and labels:
[1] = target: T1, Mdr1b P-gp (Rattus norvegicus, UniProt P43245); assay: ATP-dependent [3H]daunorubicin transport into rat hepatocyte canalicular membrane vesicles
[2] = target: T2, Mdr1 P-gp (Rattus norvegicus, UniProt P43245); assay: ATP-dependent N-pentyl-[3H]quinidinium transport in rat hepatocyte canalicular membrane vesicles; format: biochemical
T2 construct: Membrane fractions enriched in the hepatocyte canalicular membrane domain were prepared and characterized from rat and human liver; from tissue; host or cells: rat liver canalicular membrane vesicles
T2 sequence (P43245 whole entry, the tested form may be a part): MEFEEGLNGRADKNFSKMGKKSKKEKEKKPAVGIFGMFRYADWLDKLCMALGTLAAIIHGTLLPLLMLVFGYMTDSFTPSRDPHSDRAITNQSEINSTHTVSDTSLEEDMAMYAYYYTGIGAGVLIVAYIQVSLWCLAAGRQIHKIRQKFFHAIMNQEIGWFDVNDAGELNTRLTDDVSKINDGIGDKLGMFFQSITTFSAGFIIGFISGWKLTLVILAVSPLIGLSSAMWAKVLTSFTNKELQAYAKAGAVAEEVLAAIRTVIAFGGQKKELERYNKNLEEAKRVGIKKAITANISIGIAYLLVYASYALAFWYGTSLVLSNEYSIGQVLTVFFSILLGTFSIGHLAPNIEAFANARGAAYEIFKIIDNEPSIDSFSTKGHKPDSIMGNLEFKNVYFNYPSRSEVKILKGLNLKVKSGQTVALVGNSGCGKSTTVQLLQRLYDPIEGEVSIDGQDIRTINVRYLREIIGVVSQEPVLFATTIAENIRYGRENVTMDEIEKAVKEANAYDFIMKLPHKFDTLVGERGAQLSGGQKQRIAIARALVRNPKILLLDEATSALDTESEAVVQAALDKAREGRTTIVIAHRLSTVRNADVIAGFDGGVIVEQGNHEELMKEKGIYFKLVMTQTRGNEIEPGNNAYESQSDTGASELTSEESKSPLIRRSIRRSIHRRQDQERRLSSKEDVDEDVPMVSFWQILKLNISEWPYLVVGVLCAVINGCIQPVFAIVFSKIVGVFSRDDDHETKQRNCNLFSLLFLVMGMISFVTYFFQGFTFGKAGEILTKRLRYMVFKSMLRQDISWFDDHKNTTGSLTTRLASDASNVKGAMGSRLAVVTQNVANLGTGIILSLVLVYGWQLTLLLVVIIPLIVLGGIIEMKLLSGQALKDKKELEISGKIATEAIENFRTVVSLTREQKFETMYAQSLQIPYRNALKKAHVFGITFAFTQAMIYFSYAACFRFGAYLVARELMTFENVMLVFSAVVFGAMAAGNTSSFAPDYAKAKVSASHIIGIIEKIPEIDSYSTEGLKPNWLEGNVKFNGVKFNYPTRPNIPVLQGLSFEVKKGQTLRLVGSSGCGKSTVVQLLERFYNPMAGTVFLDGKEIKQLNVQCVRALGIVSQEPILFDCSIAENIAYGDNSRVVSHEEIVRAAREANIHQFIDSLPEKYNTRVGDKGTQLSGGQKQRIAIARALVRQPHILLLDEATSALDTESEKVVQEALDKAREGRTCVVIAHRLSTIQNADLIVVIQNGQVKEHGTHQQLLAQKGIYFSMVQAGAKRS

[3] = target: T2, Mdr1 P-gp; assay: ATP-dependent [14C]doxorubicin transport in rat hepatocyte canalicular membrane vesicles; format: biochemical; conditions: read-out: half-maximal inhibition of [14C]doxorubicin transport (IC50)
[4] = target: T3, recombinant rat Mdr1b P-gp (Rattus norvegicus, UniProt P43245); assay: Photoaffinity labelling with [3H]azidopine, membranes of recombinant mdr1b-BV-infected Sf9 cells; format: binding; conditions: […] GG918
T3 construct: made in house; host or cells: Sf9 insect cells, recombinant baculovirus (mdr1b-BV)
T3 sequence (P43245 whole entry): as the sequence (P43245 whole entry, the tested form may be a part) above

[5] = target: T4, rat P-gp (145 kDa protein) (Rattus norvegicus, UniProt P43245); assay: Photoaffinity labelling with [3H]azidopine, rat canalicular membranes; format: binding
T4 construct: Membrane fractions enriched in the hepatocyte canalicular membrane domain were prepared and characterized from rat and human liver; from tissue; host or cells: rat liver canalicular membrane vesicles
T4 sequence (P43245 whole entry, the tested form may be a part): as above

[6] = target: T5, conjugate export pump MRP2 (Rattus norvegicus, UniProt Q63120); assay: ATP-dependent [3H]LTC4 transport in rat hepatocyte canalicular membrane vesicles; format: biochemical; conditions: LTC4 50 nM; not significantly inhibited up to 20 µM
T5 construct: Membrane fractions enriched in the hepatocyte canalicular membrane domain were prepared and characterized from rat and human liver; from tissue; host or cells: liver of male Wistar rats: canalicular membrane vesicles (A7) or the liver in vivo (A12)

[7] = target: T6, bile salt export pump (BSEP) (Rattus norvegicus, UniProt O70127); assay: ATP-dependent [3H]taurocholate transport in rat hepatocyte canalicular membrane vesicles; format: biochemical; conditions: TC 5 M; 0.5% fetal calf serum; read-out: inhibition by 50% of ATP-dependent BSEP, [3H]taurocholate as substrate (IC50)
T6 construct: Membrane fractions enriched in the hepatocyte canalicular membrane domain were prepared and characterized from rat and human liver; from tissue; host or cells: liver of male Wistar rats: canalicular membrane vesicles (A8) or the liver in vivo (A13)
T6 sequence (O70127 1-1321): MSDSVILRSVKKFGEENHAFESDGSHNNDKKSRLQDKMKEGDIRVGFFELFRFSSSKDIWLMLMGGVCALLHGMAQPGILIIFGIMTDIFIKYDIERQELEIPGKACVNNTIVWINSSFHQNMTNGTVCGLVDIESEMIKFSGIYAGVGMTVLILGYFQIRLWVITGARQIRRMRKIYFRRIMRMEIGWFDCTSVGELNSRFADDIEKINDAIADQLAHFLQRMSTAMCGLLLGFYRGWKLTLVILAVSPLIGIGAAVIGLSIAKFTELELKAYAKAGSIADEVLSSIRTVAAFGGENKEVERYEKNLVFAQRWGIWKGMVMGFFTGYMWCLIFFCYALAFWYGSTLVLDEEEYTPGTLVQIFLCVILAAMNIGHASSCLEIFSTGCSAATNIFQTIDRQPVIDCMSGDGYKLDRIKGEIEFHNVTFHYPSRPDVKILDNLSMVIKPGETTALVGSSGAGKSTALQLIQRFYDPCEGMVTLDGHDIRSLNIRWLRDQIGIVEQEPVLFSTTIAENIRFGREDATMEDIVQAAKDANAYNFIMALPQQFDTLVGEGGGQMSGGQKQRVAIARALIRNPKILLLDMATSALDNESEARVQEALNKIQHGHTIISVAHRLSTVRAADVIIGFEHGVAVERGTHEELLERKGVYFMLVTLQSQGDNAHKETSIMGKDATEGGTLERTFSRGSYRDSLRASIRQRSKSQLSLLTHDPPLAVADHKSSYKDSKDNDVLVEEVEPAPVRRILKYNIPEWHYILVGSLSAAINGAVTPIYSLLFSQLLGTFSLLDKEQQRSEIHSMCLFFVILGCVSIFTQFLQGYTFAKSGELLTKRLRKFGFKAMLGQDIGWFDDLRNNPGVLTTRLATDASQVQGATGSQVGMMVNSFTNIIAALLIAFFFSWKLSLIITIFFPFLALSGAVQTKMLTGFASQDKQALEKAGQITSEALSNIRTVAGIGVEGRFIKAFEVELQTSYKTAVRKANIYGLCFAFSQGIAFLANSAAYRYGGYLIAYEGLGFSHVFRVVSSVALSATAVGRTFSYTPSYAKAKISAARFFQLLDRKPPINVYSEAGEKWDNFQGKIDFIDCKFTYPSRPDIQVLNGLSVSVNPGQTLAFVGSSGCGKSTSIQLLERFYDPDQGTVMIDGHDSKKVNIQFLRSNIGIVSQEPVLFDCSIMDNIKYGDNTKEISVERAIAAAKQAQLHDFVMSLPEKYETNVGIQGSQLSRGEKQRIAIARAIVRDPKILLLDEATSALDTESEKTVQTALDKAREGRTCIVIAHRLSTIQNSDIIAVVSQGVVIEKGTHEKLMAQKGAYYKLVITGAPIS

[8] = target: T5, conjugate export pump MRP2; assay: In vivo elimination of N-[3H]acetyl-LTE4 into bile; conditions: GG918 4 mol kg1
[9] = target: T7, BSEP (Rattus norvegicus, UniProt O70127); assay: In vivo elimination of [3H]taurocholate into bile; conditions: GG918 4 mol kg1 body weight
T7 construct: Membrane fractions enriched in the hepatocyte canalicular membrane domain were prepared and characterized from rat and human liver; from tissue; host or cells: liver of male Wistar rats: canalicular membrane vesicles (A8) or the liver in vivo (A13)
T7 sequence (O70127 1-1321): T6 sequence (O70127 1-1321)

[10] = Bile flow in bile duct-cannulated rats; format: in vivo, rat; conditions: GG918 4 mol kg1 body weight i.v.
[11] = system: MDR1 P-glycoprotein; assay: in vitro; conditions: Wistar (rat), human
[12] = target: T1, Mdr1b P-gp; assay: In vivo elimination of [14C]doxorubicin into bile; set-up: from tissue; host or cells: liver of male Wistar rats: the liver in the living animal (A10, A11); conditions: GG918 14 mol kg1; 60 min

T1 sequence (P43245 whole entry): as the sequence (P43245 whole entry, the tested form may be a part) above

Row | Compound | Vmax of ATP-dependent daunorubicin transport ([1]; Lineweaver-Burk plots, rat canalicular vesicles) [pmol mg1 min1] | suppression of ATP-dependent transport of N-pentyl-[3H]quinidinium ([2]; 10 nM GG918) [%] | suppression of ATP-dependent transport of N-pentyl-[3H]quinidinium ([2]; 100 nM GG918) [%] | IC50 ([2]; rat hepatocyte canalicular membranes, substrate 1 M, read-out: half-maximal inhibition of N-pentyl-[3H]quinidinium transport (IC50)) [nM] | IC50 [3] [nM] | reduction of [3H]azidopine incorporation into the Mdr1b protein [4] [%] | reduction of [3H]azidopine labelling of rat P-gp ([5]; 40 µM GG918) [%] | reduction of [3H]azidopine labelling of rat P-gp ([5]; 10 M GG918) [%] | concentration for potent competition with [3H]azidopine photoaffinity labelling versus concentration for potent inhibition of substrate transport by Mdr1b P-gp ([5]; fold higher) | IC50 [6] [nM] | IC50 [7] [nM] | inhibition of N-[3H]acetyl-LTE4 secretion [8] | effect on biliary excretion of [3H]taurocholate [9] | bile flow [10] | IC50 [11] [nM] | Ki [1] [nM] | IC50 ([1]; IC50 Dau (Figure 7), DAU 20 M, Figure 7 inset) [nM] | IC50 ([1]; half-maximal inhibition of [3H]daunorubicin transport, [3H]daunorubicin 20 M, 0.5% fetal calf serum) [nM] | manner of inhibition of [3H]daunorubicin transport ([1]; rat canalicular inside-out vesicles, 30 nM GG918) | [14C]doxorubicin elimination suppressed to (% of untreated) [12] [%]
1 | COc1cccc2c1C(=O)c1c(O)c3c(c(O)c1C2=O)C[C@@](O)(C(C)=O)C[C@@H]3O[C@H]1C[C@H](N)[C@H](O)[C@H](C)O1 [daunorubicin] | 721 | – | – | – | – | – | – | – | – | – | – | – | – | – | – | – | – | – | – | –
2 | COc1cc2c(cc1OC)CN(CCc1ccc(NC(=O)c3cccc4c(=O)c5cccc(OC)c5[nH]c34)cc1)CC2 [GG918, N-{4-[2-(1,2,3,4-tetrahydro-6,7-dimethoxy-2-isoquinolinyl)-ethyl]-phenyl}-9,10-dihydro-5-methoxy-9-oxo-4-acridine carboxamide] | – | 42 | 98 | 8 | 80 | 80 | 78 | 38 | at least 100 fold | > 20000 | ~3000 | No significant inhibition | did not affect | not affected | 8 to 80 | 35 | 20 | ~20 | competitive | 27
